# Measurements taken from patent US11865157B2, “Compositions and methods of targeting cancer stem cells” (University of Houston System, priority 2016, dated 2024).
# “Also recorded” adds a separate entry of the source. Numbered stars: 1 amine (or outer) side, 2 acyl side, 3 side chain; on linkers, the order of the positions; unused ones are H or OH. Bridge positions count the residues as written; N and C are the ends. Square brackets hold non-standard residues; d marks the D form. Peptide text beside a SMILES is read from it. I, II: the chains in the order shown. Gly(N-piperonyl) = O=C(O)CNCc1ccc2c(c1)OCO2; X1 = CC(c1ccccc1)N(CC(=O)[*:2])[*:1]; Nlys = NCCCCNCC(=O)O; Nme = COCCNCC(=O)O
# How the values were obtained:
# Format in all cases: cell-based
# unsorted H358 cells [1] = experiment: Expression of CSC markers after treatment; conditions: 100 μM, after 96 hours of treatment
# H358 unsorted cells = experiment: Scratch (wound healing) assay; conditions: 10 μM and higher, 24 hours
# Experimental: Another stem-cell-associated phenotype is the capacity of stem cells to migrate and repair gaps in a tissue or cell culture. To determine if this capacity is affected by PCS2D1, a scratch (would healing) assay was performed on H358 cells after 24 hour treatment of 0, 0.3, 1, 3 10, 30 or 100 μM of PCS2D1. Each well of confluent H358 unsorted cells was scratched using a 1000 μL pipet tip, washed, then treated with PCS2D1 for 24 hours. Each well was then stained, and the average area of the remaining scratch was calculated from a microscope viewing window near the center of the well.
# H358 ALDH− cells = experiment: MTS survival assay on sorted cells
# Experimental: To verify that PCS2-treatment has a direct effect on the survival of CSCs, an MTS survival assay was performed on sorted H358 cells. The assay is based on the reduction of MTS tetrazolium compound by viable cells to generate a colored formazan product that is soluble in cell culture media. This conversion is thought to be carried out by NAD(P)H-dependent dehydrogenase enzymes in metabolically active cells. The formazan dye produced by viable cells was quantified by measuring the absorbance at 490-500 nm. H358 cells were stained using the ALDEFluor, then the ALDH+ cells were isolated by the MD Anderson Flow Cytometry and Cell Sorting core. The sorted ALDH+ cells were treated with 1 nM to 100 μM of PCS2D1 for 24 hours, and then the relative amount of surviving cells was determined by MTS. The number of cells in the ALDH+ fraction decreased under the treatment of PCS2D1, while ALDH^− cells were unaffected (FIG. 10). […] Furthermore, this peptoid is still at the initial stage of development and further modifications can be made to optimize and increase the potency.
# To verify that PCS2-treatment has a direct effect on the survival of CSCs, an MTS survival assay was performed on sorted H358 cells as described in Example 4. The number of cells in the ALDH+ fraction decreased under the treatment of PCS2D1, while ALDH^− cells were unaffected (FIG. 21). The IC50 was around 2 μM. […]
# H358 cells = experiment: Clonogenicity assay under treatment; conditions: 2 weeks
# Experimental: To further validate that PCS2D1 inhibiting CSCs, the effects of PCS2D1 against a stem-cell-associated phenotype were studied with regards to the capacity to form colonies from a single cell by using the clonogenicity assay. About 300 cells were plated onto 35 mm cell culture plates with either 0, 1, 10, 30, or 100 μM of PCS2D1, and allowed to grow for 2 weeks. After staining with crystal violet, both the number of colonies and the overall morphology of the colonies were evaluated.
# (§1) The clonogenicity assay was repeated with H358 cells, 500 cells/well, using 0, 10, 30 and 100 μM PCS2 treatment over 2 weeks. […] To confirm that this was due to the specific targeting on CSCs, the clonogenicity assay was performed again over 8 days, with the treatment performed from day 7 to 8 instead, to allow the colonies to establish. This was done alongside control cells plated on chamber slides and then grown under the same conditions.
# H358 colonies = experiment: Variation of the clonogenicity assay: treatment of established colonies, crystal violet and ALDEFluor staining
# Experimental: Another set of experiments were designed to evaluate if differentiated cells from CSCs were targeted by PCS2D1 as well. A variation of the clonogenicity assay was performed, where about 300 unsorted H358 cells were plated to 35 mm plates each and allowed to form colonies for 7 days. After that time, the colonies were treated with either 0, 1, 10, 30, or 100 μM of PCS2D1 for 24 hours, and then stained with crystal violet. The colonies were examined under a microscope. […] To determine if the cells lost are CSCs or the differentiated cells, ALDEFluor staining was performed against some of the colonies at 0 and 100 μM treatment.
# as §1
# unsorted H358 cells [2] = experiment: MTS cell-proliferation assay on unsorted cells
# Experimental: Further experiments were conducted to evaluate how PCS2 affects the proliferation of unsorted cancer cell populations. The standard MTS cell-proliferation assay was performed on unsorted H358 cells (known to contain 5-15% of CSCs) and measured proliferation rates over 6 days, at concentrations ranging from 100 nM to 100 μM of PCS2D1.
smiles,measurement,setting,value
COCCNCC(=O)N(CCCCN)CC(=O)N(CC(=O)N(CC(=O)N(CCCCN)CC(=O)N[C@@H](CCCCN)C(=O)N[C@H](CCCCN)C(=O)N[C@@H](CCSC)C(=O)NCCCC[C@H](NC(=O)[C@H](CCSC)NC(=O)[C@@H](CCCCN)NC(=O)[C@H](CCCCN)NC(=O)CN(CCCCN)C(=O)CN(C(=O)CN(Cc1ccc2c(c1)OCO2)C(=O)CN(CCCCN)C(=O)CNCCOC)C(C)c1ccccc1)C(N)=O)C(C)c1ccccc1)Cc1ccc2c(c1)OCO2 (stereo partly drawn) [PCS2D1] (I: H-[Nme][Nlys][Gly(N-piperonyl)][X1][Nlys]K[dK]MK-NH2 / II: H-[Nme][Nlys][Gly(N-piperonyl)][X1][Nlys]K[dK]M; amide I:9-II:C; N-terminus and C-terminus assumed),expression of ALDH1A3,unsorted H358 cells [1],significant drop
same,expression of PLEC,unsorted H358 cells [1],significant drop
same,expression of SOX2,unsorted H358 cells [1],significant drop
same,migration (area of remaining scratch),H358 unsorted cells,migration was significantly inhibited
same,effect on ALDH− cells,H358 ALDH− cells,unaffected
same,morphology of the colonies,H358 cells; 10 μM,significantly more dispersed colonies
same,colonies formed,"H358 cells; about 300 cells, 30 and 100 μM",significant decrease in colonies formed
same,ALDH fluorescence of colonies,"H358 colonies; 100 μM, ALDEFluor staining",no significant fluorescence; also recorded: complete loss of ALDH^+ cells
same,ALDH fluorescent cell number,"H358 colonies; 10-30 μM, Aldefluor assay",reduction in fluorescent cell number
same,loss of cells from the colony center,"H358 colonies; colonies grown 7 days, then 24 hours treatment at 10 μM and higher",significant loss of cells from the colony center; also recorded: significant loss of “central” cells
same,overall growth of the H358 cell line,"unsorted H358 cells [2]; 30 μM and higher, by day 2",significantly decreased
same,growth of the H358 cell line,"unsorted H358 cells [2]; 100 μM, over 6 days",no significant growth
